Experimental data reported in US5250735A, “2-(N-substituted-aminoalkyl)-5-(E)-alkylidene cyclopentanones, 2-(N-substituted-aminoalkyl)-5-(E)-arylalkylidene cyclopentanones, and derivatives thereof” (priority 1992, dated 1993).
Where a name gives a salt, the structure may show the parent alone.

Legend:
[1] = test system: 60 human tumor cell lines; settings: 5-fluorouracil comparison value; cited from earlier work
[2] = literature; cited from earlier work
[3] = literature; cited from earlier work; remark: listed apart in the source
[4] = test system: acetic acid induced mouse writhes; assay: Acetic acid induced mouse writhes (analgesic activity); format: in vivo, mice; settings: oral
Protocol: Analgesic activity was evaluated by a procedure similar to that described by Koster et al. [R. Koster, et al., Fed. Proc., 18, 412 (1959)]. About one hour after oral administration of test compounds to mice, 0.1 ml/10 g body weight of acetic acid was intraperitoneally injected. About five minutes later, the number of writhes of each mouse was counted for a period of about 20 minutes. The analgesic effect was manifested as a reduction in the number of writhes. "Compound numbers" refer to compounds whose synthesis is illustrated in the corresponding Example number. The P values are the results of T-tests, which are well known to those skilled in the art.

[5] = test system: Ehrlich ascites carcinoma; assay: Antitumor effect on Ehrlich ascites carcinoma, survival; format: in vivo, ICR mice; settings: 20 mg/kg/day intraperitoneal, 9 days
Protocol: Antitumor effect was measured on Ehrlich ascites carcinoma. Ehrlich ascites carcinoma cells were intraperitoneally administered to ICR mice. After 24 hours, 20 mg/kg/day of the compound whose synthesis is illustrated in Example 1 and Example 2 were each administered to the mice by intraperitoneal route for 9 days. The periods of survival of these animals were examined.

[6] = test system: 60 human tumor cell lines; assay: National Cancer Institute in vitro tumor cell screen; format: cell-based; parameters: key to Differential Cellular Sensitivity GI50, tumor cell line subpanels / Differential Cellular Sensitivity LC50, tumor cell line subpanels / Differential Cellular Sensitivity TGI, tumor cell line subpanels: LEU: Leukemia/lymphoma; LNS: Nonsmall cell lung; COL: Colon; MEL: Melanoma; OVA: Ovary; REN: Kidney; SCL: Small cell lung; settings: for GI50 / IC100 / LC50: Homo sapiens, molar concentration, mean of all cell lines; for GI50: 50% inhibition of cell proliferation, read-out: Mean response of all cell lines (Log) GI50 (converted); for IC100: 100% inhibition of cell proliferation, read-out: Mean response of all cell lines (Log) TGI (converted); for Differential Cellular Sensitivity GI50, tumor cell line subpanels: subpanels for GI50; for Differential Cellular Sensitivity LC50, tumor cell line subpanels: subpanels for LC50; for Differential Cellular Sensitivity TGI, tumor cell line subpanels: subpanels for TGI; for LC50: 50% of cell population killed, read-out: Mean response of all cell lines (Log) LC50 (converted)
Protocol: In the assay, a candidate compound was tested for its ability to inhibit tumor cell growth. A dose response curve of percent cell growth versus compound concentration over a concentration range of 10^-9 to 10^-4 molar of each test compound was established to determine GI50, TGI and LC50. GI50 and TGI denote that cell proliferation was inhibited by 50% and 100% respectively. LC50 denotes that 50% of cell population was killed. The selectivity of a compound towards a certain type of tumor cell line was evaluated from mean graphs which compared the relative drug concentrations required to produce the same level of response (e.g. GI50) in each cell line. A differential cellular sensitivity index was calculated by taking the difference between the logarithm of GI50 (or TGI, LC50) value for a cell line versus the arithmetic mean of the logarithm of GI50 (or TGI, LC 50) value for all cell line responses measured for a given compound.

Acute toxicity = settings: mouse, in vivo, 4 week old male mice
Protocol: (§1) The acute toxicity of one typical compound of this invention was measured by administering the compound to a group of 4 week old male mice.

male mice = assay: Acute toxicity; settings: mouse, in vivo
Protocol: as §1

[7] = test system: carrageenin-induced rat paw edema; assay: Carrageenin-induced rat paw edema (anti-inflammatory activity); format: in vivo, Wistar rats; settings: paw volume at about 3 hours
Protocol: Anti-inflammatory activity was evaluated by examining the inhibitory activity of candidate compounds on carrageenin-induced rat paw edema according to a literature procedure [C. A. Winter, et al., Proc. Soc. Exp. Biol. Med. 111, 544 (1962)]. Test compounds were orally administered about 1 hour or subcutaneously injected about 0.5 hours before the injection of 100 microliters of a 1% suspension of carrageenin in saline into the subcutaneous tissues of the right hind paw of Wistar rats. The paw volumes were measured about 3 hours after carrageenin injection. The paw volumes were compared with that of a control group to give the percentage of inflammation inhibition. The results of these tests are shown in Table I. "Compound numbers" refer to compounds whose synthesis is illustrated in the corresponding Example number. The P values are the results of T-tests, which are well known to those skilled in the art.

[8] = 50.0 mg/kg sc, about 0.5 hours before carrageenin
[9] = 25.0 mg/kg sc, about 0.5 hours before carrageenin
[10] = 96.0 mg/kg po, about 1 hour before carrageenin

## O=c1[nH]cc(F)c(=O)[nH]1 [5-fluorouracil]
[1]
  mean log LC50: -3.5

## C=C1C(=O)O[C@H]2C[C@@H](C)[C@@H]3C=CC(=O)[C@@]3(C)C[C@H]12 [Aromaticin]
[2]
  anti-inflammatory activity (in words): potent
[3]
  anticancer activity (in words): potent

## CC(=O)Oc1ccccc1C(=O)O [Aspirin, reference compound]
[4]; 100 mg/kg
  Inhibition of acetic acid induced mouse writhes: 46.7%
[4]; 200 mg/kg
  Inhibition of acetic acid induced mouse writhes: 64.0%

## CCCC/C=C1\CCC(CN(C)C)C1=O.Cl (centres unmarked) [Compound 1, 2-Dimethylaminomethyl-5-(E)-pentylidene cyclopentanone hydrochloride]
[5]
  average number of days of survival: 41 ± 5.4 days
  increase of life span (ILS %) over the control: 173.8%
  ratio of survival for more than 40 days: 9/11
[6]
  GI50: 1.58 µM
  IC100: 3.8 µM
  Differential Cellular Sensitivity GI50, tumor cell line subpanels: LEU;COL
  Differential Cellular Sensitivity LC50, tumor cell line subpanels: COL;LNS;REN
  Differential Cellular Sensitivity TGI, tumor cell line subpanels: COL;REN
Acute toxicity; ip, intraperitoneal
  LD50: 107 mg/kg
Acute toxicity; iv, intraveneous
  LD50: 52 mg/kg
Acute toxicity; oral
  LD50: 486 mg/kg
Male mice
  acute toxicity (in words): low acute toxicity

## CCCCCCC/C=C1\CCC(CN(C)C)C1=O.Cl (centres unmarked) [Compound 2, 2-Dimethylaminomethyl-5-(E)-octylidene cyclopentanone hydrochloride]
[5]
  average number of days of survival: 33 ± 8.2 days
  increase of life span (ILS %) over the control: 112.0%
  ratio of survival for more than 40 days: 3/9
[6]
  GI50: 5.13 µM
  IC100: 12.3 µM
  Differential Cellular Sensitivity GI50, tumor cell line subpanels: LEU;COL
  Differential Cellular Sensitivity LC50, tumor cell line subpanels: COL;LNS;REN
  Differential Cellular Sensitivity TGI, tumor cell line subpanels: COL;REN

## CC(C)=C1CCC(CN(C)C)C1=O.Cl (centres unmarked) [Compound 3, 2-Dimethylaminomethyl-5-(1-methylethylidene) cyclopentanone hydrochloride]
[6]
  GI50: 19.1 µM
  LC50: 67.6 µM
  IC100: 40.7 µM
  Differential Cellular Sensitivity GI50, tumor cell line subpanels: LEU
  Differential Cellular Sensitivity LC50, tumor cell line subpanels: SCL
  Differential Cellular Sensitivity TGI, tumor cell line subpanels: COL;LEU

## CCOC(=O)COc1ccccc1/C=C1\CCC(CN(C)C)C1=O.Cl (centres unmarked) [Compound 4, 2-Dimethylaminomethyl-5-(E)-(2-ethoxycarbonylmethoxyl-benzylidene) cyclopentanone hydrochloride]
[6]
  GI50: 6.31 µM
  IC100: 15.8 µM
  Differential Cellular Sensitivity GI50, tumor cell line subpanels: LEU
  Differential Cellular Sensitivity LC50, tumor cell line subpanels: CNS;LNS;MEL
  Differential Cellular Sensitivity TGI, tumor cell line subpanels: LEU

## CC(/C=C1\CCC(CN(C)C)C1=O)c1cccc(Br)c1.Cl (centres unmarked) [Compound 5, 2-Dimethylaminomethyl-5-(E)-[2-(3-bromophenyl)propylidene] cyclopentanone hydrochloride]
[6]
  GI50: 12.6 µM
  LC50: 63.1 µM
  IC100: 27.5 µM
  Differential Cellular Sensitivity GI50, tumor cell line subpanels: LEU
  Differential Cellular Sensitivity LC50, tumor cell line subpanels: CNS;OVA
  Differential Cellular Sensitivity TGI, tumor cell line subpanels: LEU

## CN(C)CC1CC/C(=C\c2ccccc2)C1=O.Cl (centres unmarked) [Compound 6, 2-Dimethylaminomethyl-5-(E)-benzylidene cyclopentanone hydrochloride]
[7]; [8]
  Inhibition of carrageenin induced rat paw edema: 77.4%

## COc1ccccc1/C=C1\CCC(CN(C)C)C1=O.Cl (centres unmarked) [Compound 7, 2-Dimethylaminomethyl-5-(E)-[(2-methoxy)benzylidene] cyclopentanone hydrochloride]
[7]; 12.5 mg/kg sc, about 0.5 hours before carrageenin
  Inhibition of carrageenin induced rat paw edema: 44.2%
[7]; [9]
  Inhibition of carrageenin induced rat paw edema: 70.3%
[7]; [8]
  Inhibition of carrageenin induced rat paw edema: 95.8%
[6]
  GI50: 6.31 µM
  LC50: 39.8 µM
  IC100: 15.8 µM
  Differential Cellular Sensitivity GI50, tumor cell line subpanels: LEU
  Differential Cellular Sensitivity LC50, tumor cell line subpanels: COL
  Differential Cellular Sensitivity TGI, tumor cell line subpanels: COL

## CN(C)CC1CC/C(=C\c2ccc(O)cc2)C1=O.Cl (centres unmarked) [Compound 8, 2-Dimethylaminomethyl-5-(E)-[(4-hydroxy)benzylidene] cyclopentanone hydrochloride]
[7]; [8]
  Inhibition of carrageenin induced rat paw edema: 95.9%
[6]
  GI50: 4.27 µM
  IC100: 10.7 µM
  Differential Cellular Sensitivity GI50, tumor cell line subpanels: COL;LEU
  Differential Cellular Sensitivity LC50, tumor cell line subpanels: CNS;REN;SCL
  Differential Cellular Sensitivity TGI, tumor cell line subpanels: LEU

## O=C1/C(=C/c2ccc(O)cc2)CCC1CNc1ccc(Cl)cc1 (centres unmarked) [Compound 9, 2-[(4-Chlorophenyl)aminomethyl]-5-(E)-[(4-hydroxy)benzylidene] cyclopentanone]
[6]
  GI50: 3.16 µM
  LC50: 30.9 µM
  IC100: 10 µM
  Differential Cellular Sensitivity GI50, tumor cell line subpanels: COL;LEU;SCL
  Differential Cellular Sensitivity LC50, tumor cell line subpanels: COL
  Differential Cellular Sensitivity TGI, tumor cell line subpanels: LEU;SCL

## COc1ccccc1/C=C1\CCC(CN2CCOCC2)C1=O.Cl (centres unmarked) [Compound 10, 2-Morpholinomethyl-5-(E)-[(2-methoxy)benzylidene]cyclopentanone hydrochloride]
[6]
  GI50: 7.94 µM
  LC50: 52.5 µM
  IC100: 19.5 µM
  Differential Cellular Sensitivity GI50, tumor cell line subpanels: LEU;COL
  Differential Cellular Sensitivity LC50, tumor cell line subpanels: MEL;REN;OVA
  Differential Cellular Sensitivity TGI, tumor cell line subpanels: LEU

## COc1ccccc1/C=C1\CCC(Cc2ccccc2)(CN(C)C)C1=O.Cl (centres unmarked) [Compound 11, 2-Benzyl-2-dimethylaminomethyl-5-(E)-[(2-methoxy)benzylidene] cyclopentanone hydrochloride]
[7]; [10]
  Inhibition of carrageenin induced rat paw edema: 52.2%
[6]
  GI50: 2.19 µM
  LC50: 83.2 µM
  IC100: 25.1 µM
  Differential Cellular Sensitivity GI50, tumor cell line subpanels: LEU;COL
  Differential Cellular Sensitivity LC50, tumor cell line subpanels: COL
  Differential Cellular Sensitivity TGI, tumor cell line subpanels: LEU
[4]; 96 mg/kg
  Inhibition of acetic acid induced mouse writhes: 41.7%

## COc1ccc(/C=C2\CCC(Cc3ccccc3)(CN(C)C)C2=O)cc1.Cl (centres unmarked) [Compound 12, 2-Benzyl-2-dimethylaminomethyl-5-(E)-[(4-methoxy)benzylidene] cyclopentanone hydrochloride]
[7]; [10]
  Inhibition of carrageenin induced rat paw edema: 57.3%
[6]
  GI50: 35.5 µM
  IC100: 77.6 µM
  Differential Cellular Sensitivity GI50, tumor cell line subpanels: COL;MEL
  Differential Cellular Sensitivity LC50, tumor cell line subpanels: SCL
  Differential Cellular Sensitivity TGI, tumor cell line subpanels: LEU;SCL
[4]; 48 mg/kg
  Inhibition of acetic acid induced mouse writhes: 45.6%
[4]; 96 mg/kg
  Inhibition of acetic acid induced mouse writhes: 86.6%

## CN(C)CCC1(C2=CCCC2)CC/C(=C\c2ccc(Cl)cc2)C1=O (centres unmarked) [Compound 13, 2-(1-Cyclopenten-1-yl)-2-dimethylaminoethyl-5-(E)-[(4-chloro)benzylidene]cyclopentanone hydrochloride]
[6]
  GI50: 7.08 µM
  LC50: 44.7 µM
  IC100: 19.1 µM
  Differential Cellular Sensitivity GI50, tumor cell line subpanels: MEL
  Differential Cellular Sensitivity LC50, tumor cell line subpanels: MEL
  Differential Cellular Sensitivity TGI, tumor cell line subpanels: MEL

## C=C1C(=O)O[C@@H]2C[C@@H](C)[C@@H]3C=CC(=O)[C@@]3(C)[C@@H](O)[C@H]12 [Helenalin]
[2]
  anti-inflammatory activity (in words): potent
[3]
  anticancer activity (in words): potent

## CC(C)Cc1ccc(C(C)C(=O)O)cc1 (centres unmarked) [Ibuprofen, reference compound]
[7]; [9]
  Inhibition of carrageenin induced rat paw edema: 72.9%
[7]; 52.0 mg/kg po, about 1 hour before carrageenin
  Inhibition of carrageenin induced rat paw edema: 54.9%

## C[C@@H]1C[C@@H]2OC(=O)[C@]3(C)[C@H]2[C@@H](OC3(C)O)[C@]2(C)C(=O)C=C[C@@H]12 (some centres unmarked) [Tenulin]
[2]
  anti-inflammatory activity (in words): potent
[3]
  anticancer activity (in words): potent
